In patent US6087355A, “Cephalosporin antibiotics” (Microcide Pharmaceuticals, Inc., priority 1996, dated 2000):
Converted amounts (≈) assume the structure as drawn.

Key:
Test in all cases: In vitro MIC, agar dilution
Format in all cases: cell-based
[1] = test system: S. aureus 76(Meth^R)(lac^+); details: Staphylococcus aureus, read-out: minimum inhibitory concentration (MIC)
Summary of the method: (§1)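 Strains were spotted at roughly 10^4 cfu onto drug-containing Mueller-Hinton agar. MIC was read as the lowest inhibitory concentration after overnight incubation at 35-36 °C.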

E. faecalis VanB(Van^R) = details: Enterococcus faecalis, read-out: minimum inhibitory concentration (MIC)
Summary of the method: as §1

[2] = test system: S. aureus ATCC 33593(Meth^R); details: Staphylococcus aureus, ATCC33593, read-out: minimum inhibitory concentration (MIC)
Summary of the method: as §1

P. aeruginosa ATCC 27853 = details: Pseudomonas aeruginosa, ATCC27853, read-out: minimum inhibitory concentration (MIC)
Summary of the method: as §1

E. coli ATCC 25992 = details: Escherichia coli, ATCC25992, read-out: minimum inhibitory concentration (MIC)
Summary of the method: as §1

[3] = test system: S. aureus ATCC 13709(Meth^S); details: Staphylococcus aureus, ATCC13709, S. aureus ATCC 13709(Meth^S); read-out: minimum inhibitory concentration (MIC)
Summary of the method: as §1

E. faecium VanA(Van^R) = details: Enterococcus faecium, read-out: minimum inhibitory concentration (MIC)
Summary of the method: as §1

S. aureus ATCC 29213 = details: Staphylococcus aureus, ATCC29213, read-out: minimum inhibitory concentration (MIC)
Summary of the method: as §1

E. faecium ATCC 35667 = details: Enterococcus faecium, ATCC35667, read-out: minimum inhibitory concentration (MIC)
Summary of the method: as §1

[4] = test system: S. haemolyticus 05(Meth^R); details: Staphylococcus haemolyticus, read-out: minimum inhibitory concentration (MIC)
Summary of the method: as §1

[5] = test system: S. aureus Spain #356(Meth^R); details: Staphylococcus aureus, read-out: minimum inhibitory concentration (MIC)
Summary of the method: as §1

[6] = test system: S. aureus PC1(Meth^S)(lac^+); details: Staphylococcus aureus, read-out: minimum inhibitory concentration (MIC)
Summary of the method: as §1

E. faecium A491(Amp^R) = details: Enterococcus faecium, read-out: minimum inhibitory concentration (MIC)
Summary of the method: as §1

E. faecalis ATCC 29212 = details: Enterococcus faecalis, ATCC29212, read-out: minimum inhibitory concentration (MIC)
Summary of the method: as §1

## C[C@@H](O)[C@H]1C(=O)N2C(C(=O)O)=C(SCCN=CN)C[C@H]12 [Imipenem, imipenem, reference compound]
[1]
  MIC: 32 µg/mL (≈ 107 µM)
E. faecalis VanB(Van^R)
  MIC: 0.5 µg/mL (≈ 1.67 µM)
[2]
  MIC: 32 µg/mL (≈ 107 µM)
P. aeruginosa ATCC 27853
  MIC: 1 µg/mL (≈ 3.34 µM)
E. coli ATCC 25992
  MIC: ≤ 0.25 µg/mL
[3]
  MIC: ≤ 0.25 µg/mL
E. faecium VanA(Van^R)
  MIC: 4 µg/mL (≈ 13.4 µM)
S. aureus ATCC 29213
  MIC: ≤ 0.25 µg/mL
E. faecium ATCC 35667
  MIC: 4 µg/mL (≈ 13.4 µM)
[4]
  MIC: 64 µg/mL (≈ 214 µM)
[5]
  MIC: 32 µg/mL (≈ 107 µM)
[6]
  MIC: ≤ 0.25 µg/mL
E. faecium A491(Amp^R)
  MIC: > 128 µg/mL
E. faecalis ATCC 29212
  MIC: ≤ 0.25 µg/mL
